The record followed here is patent publication US8598078B2, “Condensed anthran I lami de derivatives as insecticides” (Syngenta Crop Protection, LLC, priority 2007, dated 2013).

The subject of data set [1] is Spodoptera littoralis (Egyptian cotton leafworm). The data set can be described thus: Activity against Spodoptera littoralis (larvicide, feeding/residual contact activity, preventive), cotton leaf discs. To be noted: foliar, 72 h, read-out: activity (mortality, repellent effect, feeding behaviour, growth regulation). Format: in vivo. The text has this:
Activity Against Spodoptera littoralis (Egyptian Cotton Leafworm)
(§1) (Larvicide, Feeding/Residual Contact Activity, Preventive)
Cotton leaf discs were placed on agar in a 24-well microtiter plate and sprayed with test solutions. After drying, the leaf discs were infested with 5 L1 larvae. The samples were checked for mortality, repellent effect, feeding behaviour, and growth regulation 3 days after treatment.

Data set [2] relates to Heliothis virescens (tobacco budworm). In words: Activity against Heliothis virescens (ovo-larvicide, feeding/contact activity, curative), eggs on artificial diet. Format: in vivo. To be noted: read-out: activity (egg mortality, larval mortality, growth regulation). The method, then:
Activity Against Heliothis virescens (Tobacco Budworm)
(Ovo-Larvicide, Feeding/Contact Activity, Curative)
Eggs (0-24 h old) were placed in 24-well microtiter plate on artificial diet and treated with test solutions by pipetting. After an incubation period of 4 days, samples were checked for egg mortality, larval mortality, and growth regulation.

The subject of data set [3] is Plutella xylostella (diamond back moth). The data set can be described thus: Plutella xylostella (larvicide, feeding/residual contact activity, preventive), artificial diet MTP. The format is in vivo. To be noted: 120 h, read-out: activity (larval mortality, antifeedant, growth regulation). The method, then: Plutella xylostella (Diamond Back Moth)
as §1
24-well microtiter plate (MTP) with artificial diet was treated with test solutions by pipetting. After drying, the MTP's were infested with larvae (L2) (10-15 per well). After an incubation period of 5 days, samples were checked for larval mortality, antifeedant and growth regulation.

Data set [4] has as its system Diabrotica balteata (corn root worm). The data set can be described thus: Diabrotica balteata (larvicide, feeding/residual contact activity, preventive), artificial diet MTP. Format: in vivo. To be noted: 120 h, read-out: activity (larval mortality, antifeedant, growth regulation). On the procedure:
Diabrotica balteata (Corn Root Worm)
as §1
24-well microtiter plate (MTP) with artificial diet was treated with test solutions by pipetting. After drying, the MTP's were infested with larvae (L2) (6-10 per well). After an incubation period of 5 days, samples were checked for larval mortality, antifeedant and growth regulation.

Data set [5] has as its system Myzus persicae (green peach aphid). The data set can be described thus: Activity against Myzus persicae (mixed population, feeding/residual contact activity, preventive), sunflower leaf discs. To be noted: foliar, 144 h, read-out: activity (mortality and special effects). The format is in vivo. On the procedure: (§2) Activity Against Myzus persicae (Green Peach Aphid)
(§3) (Mixed Population, Feeding/Residual Contact Activity, Preventive)
Sunflower leaf discs were placed on agar in a 24-well microtiter plate and sprayed with test solutions. After drying, the leaf discs were infested with an aphid population of mixed ages. After an incubation period of 6 days, samples were checked for mortality and special effects (e.g. phytotoxicity).

The test system is the same in data set [6]. In words: Activity against Myzus persicae (mixed population, systemic/feeding activity, curative), pea seedling roots in test solution. To be noted: 144 h, read-out: activity (mortality and special effects on the plant). Format: in vivo.
From the text: as §2
(Mixed Population, Systemic/Feeding Activity, Curative)
Roots of pea seedlings, infested with an aphid population of mixed ages, were placed directly in the test solutions. 6 days after introduction, samples were checked for mortality and special effects on the plant.

Data set [7] deals with Thrips tabaci (onion thrips). In words: Activity against Thrips tabaci (mixed population, feeding/residual contact activity, preventive), sunflower leaf discs. The format is in vivo. As to conditions: foliar, 144 h, read-out: activity (mortality and special effects). The method, then:
Activity Against Thrips tabaci (Onion Thrips)
as §3
Sunflower leaf discs were placed on agar in a 24-well microtiter plate and sprayed with test solutions. After drying, the leaf discs were infested with a thrips population of mixed ages. After an incubation period of 6 days, samples were checked for mortality and special effects (e.g. phytotoxicity).

Data set [8] has as its system Nilaparvata lugens (brown rice planthopper). The data set can be described thus: Activity against Nilaparvata lugens (larvicide, feeding/contact), rice seedlings. Format: in vivo. As to conditions: read-out: activity (mortality, growth regulation, effects on the F1 generation). The method, then: Activity Against Nilaparvata lugens (Brown Rice Planthopper)
(Larvicide, Feeding/Contact)
Rice seedlings were treated with the diluted test solutions in a spray chamber. After drying, they were infested with 20 N3 nymphs (2 replicates). 6-12 days after the treatment samples were checked for mortality, growth regulation, and effects on the F, generation.

Turning to `COc1cc(C(=O)Nc2c(C)cc3cn(C(=O)OC(C)(C)C)nc3c2C(=O)NC(C)C)n(-c2ncccc2Cl)n1`, the melting point was 161 to 162 °C.

As for `COc1cc(C(=O)Nc2c(C)cc3cn(Cc4ccccn4)nc3c2C(=O)NC(C)C)n(-c2ncccc2Cl)n1`, the melting point was in the range of 156 to 160 °C.

`CCCCCCCCN(C)C(=O)n1cc2cc(C)c(NC(=O)c3cc(OC)nn3-c3ncccc3Cl)c(C(=O)NC(C)C)c2n1` registered a melting point of 66 to 70 °C.

In the case of `COc1cc(C(=O)Nc2c(C)cc3cn(-c4nc(Cl)nc(Cl)n4)nc3c2C(=O)NC(C)C)n(-c2ncccc2Cl)n1`, the melting point was 216 °C (dec.).

The compound `COc1cc(C(=O)Nc2c(C)cc3cn(-c4nc(OC)nc(OC)n4)nc3c2C(=O)NC(C)C)n(-c2ncccc2Cl)n1` registered a melting point of 226 to 230 °C.

As for `CCOC(=O)CSC(=O)n1cc2cc(C)c(NC(=O)c3cc(OC)nn3-c3ncccc3Cl)c(C(=O)NC(C)C)c2n1`, the melting point was in the range of 85 to 86 °C.

In the case of `CCCC(C)(C)C(=O)n1cc2cc(C)c(NC(=O)c3cc(OC)nn3-c3ncccc3Cl)c(C(=O)NC(C)C)c2n1` [P.31], the mortality at 400 ppm in data set [1], in data set [2], in [3], in data set [4], in [5] and in data set [6] was more than 80% each time. Besides, the mortality at 400 ppm in [7] and in data set [8] was more than 80% in each case.
